Experimental data reported in ChEMBL document CHEMBL1135899, “Design, synthesis, and evaluation of opioid analogues with non-peptidic beta-turn scaffold: enkephalin and endomorphin mimetics” (J Med Chem, 2002).

Key:
[1] = target: Mu-type opioid receptor (Homo sapiens) (UniProt P35372); experiment: Ability to displace [3H]-DAMGO from human Opioid receptor mu 1 at 0.1 uM
Opioid receptor = Opioid receptor (Rattus norvegicus, UniProt P33533+P34975+P33535); experiment: Inhibition of [3H]-Naloxone binding to opioid receptor in rat cerebral cortex; assay type: tissue-based
[2] = target: T1, Opioid receptor (Rattus norvegicus) (UniProt P33533+P34975+P33535); experiment: Inhibition of [3H]naloxone binding to opioid receptor in rat cerebral cortex at 0.1 uM; assay type: tissue-based
T1 sequence (P33533 whole entry, looked up): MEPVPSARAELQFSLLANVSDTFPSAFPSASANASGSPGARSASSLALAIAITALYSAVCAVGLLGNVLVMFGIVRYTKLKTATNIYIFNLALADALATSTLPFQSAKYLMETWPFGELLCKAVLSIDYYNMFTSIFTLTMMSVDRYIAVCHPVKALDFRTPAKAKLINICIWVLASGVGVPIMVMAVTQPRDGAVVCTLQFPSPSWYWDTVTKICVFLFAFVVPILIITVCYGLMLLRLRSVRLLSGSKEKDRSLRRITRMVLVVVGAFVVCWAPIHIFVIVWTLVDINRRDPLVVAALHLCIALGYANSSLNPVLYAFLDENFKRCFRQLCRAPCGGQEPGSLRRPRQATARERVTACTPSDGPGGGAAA
T1 sequence (P33535 whole entry, looked up): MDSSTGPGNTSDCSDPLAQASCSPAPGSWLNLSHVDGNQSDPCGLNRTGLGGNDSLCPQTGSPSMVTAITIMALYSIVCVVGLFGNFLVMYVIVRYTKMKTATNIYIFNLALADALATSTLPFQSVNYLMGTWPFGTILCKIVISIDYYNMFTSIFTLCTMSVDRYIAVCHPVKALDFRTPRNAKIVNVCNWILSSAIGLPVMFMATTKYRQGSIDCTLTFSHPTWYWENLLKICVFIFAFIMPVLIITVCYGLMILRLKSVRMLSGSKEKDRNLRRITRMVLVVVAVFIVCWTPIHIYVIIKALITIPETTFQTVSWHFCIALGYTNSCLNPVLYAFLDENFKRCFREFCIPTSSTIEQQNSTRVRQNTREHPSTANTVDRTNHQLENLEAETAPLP
T1 sequence (P34975 whole entry, looked up): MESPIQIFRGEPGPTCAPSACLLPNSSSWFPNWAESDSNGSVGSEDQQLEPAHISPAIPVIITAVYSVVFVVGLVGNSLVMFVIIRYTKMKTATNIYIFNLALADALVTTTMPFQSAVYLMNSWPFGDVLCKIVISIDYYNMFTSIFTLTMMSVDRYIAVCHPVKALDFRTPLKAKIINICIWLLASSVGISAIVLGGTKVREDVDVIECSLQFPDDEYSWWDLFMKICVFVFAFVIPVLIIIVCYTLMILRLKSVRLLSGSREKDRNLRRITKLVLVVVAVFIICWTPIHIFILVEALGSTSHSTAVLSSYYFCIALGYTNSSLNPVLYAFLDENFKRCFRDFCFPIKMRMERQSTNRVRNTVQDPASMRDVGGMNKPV

[3] = target: delta opioid receptor (Homo sapiens) (UniProt P41143); experiment: Displacement of [3H]DPDPE from human delta opioid receptor at 0.1 uM
Chain of delta opioid receptor (Homo sapiens) (P41143 whole entry, looked up): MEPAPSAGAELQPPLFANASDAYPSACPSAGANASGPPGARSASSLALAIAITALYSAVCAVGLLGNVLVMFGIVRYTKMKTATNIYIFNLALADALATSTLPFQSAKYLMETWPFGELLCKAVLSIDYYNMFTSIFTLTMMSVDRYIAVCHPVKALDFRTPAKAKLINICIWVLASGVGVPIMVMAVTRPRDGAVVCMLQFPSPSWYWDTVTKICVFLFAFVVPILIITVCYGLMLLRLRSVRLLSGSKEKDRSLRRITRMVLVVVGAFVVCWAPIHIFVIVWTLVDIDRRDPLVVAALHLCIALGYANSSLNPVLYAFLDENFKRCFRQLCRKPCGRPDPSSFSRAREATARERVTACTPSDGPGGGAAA

[4] = target: T1, Opioid receptor (Rattus norvegicus); experiment: Inhibition of [3H]naloxone binding to opioid receptor in rat cerebral cortex at 1 uM; assay type: tissue-based
[5] = target: Kappa-type opioid receptor (Homo sapiens) (UniProt P41145); experiment: Ability to displace [3H]-U 69593 from human Opioid receptor kappa 1 at 0.1 uM
Chain of Kappa-type opioid receptor (Homo sapiens) (P41145 whole entry): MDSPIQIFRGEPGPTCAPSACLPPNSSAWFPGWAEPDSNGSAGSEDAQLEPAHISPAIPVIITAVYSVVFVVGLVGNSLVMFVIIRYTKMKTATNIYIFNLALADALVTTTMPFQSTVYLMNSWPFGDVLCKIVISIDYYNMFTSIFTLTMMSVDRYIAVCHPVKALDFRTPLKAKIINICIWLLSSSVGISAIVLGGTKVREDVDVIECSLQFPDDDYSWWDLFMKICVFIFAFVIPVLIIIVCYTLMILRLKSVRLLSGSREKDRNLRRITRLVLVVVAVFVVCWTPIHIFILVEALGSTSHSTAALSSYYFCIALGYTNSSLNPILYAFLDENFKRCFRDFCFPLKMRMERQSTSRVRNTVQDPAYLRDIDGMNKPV

[6] = target: Mu-type opioid receptor (Homo sapiens) (UniProt P35372); experiment: Ability to displace [3H]DAMGO from human Opioid receptor mu 1 at 0.1 uM.

Chain of Mu-type opioid receptor (Homo sapiens) (P35372 whole entry): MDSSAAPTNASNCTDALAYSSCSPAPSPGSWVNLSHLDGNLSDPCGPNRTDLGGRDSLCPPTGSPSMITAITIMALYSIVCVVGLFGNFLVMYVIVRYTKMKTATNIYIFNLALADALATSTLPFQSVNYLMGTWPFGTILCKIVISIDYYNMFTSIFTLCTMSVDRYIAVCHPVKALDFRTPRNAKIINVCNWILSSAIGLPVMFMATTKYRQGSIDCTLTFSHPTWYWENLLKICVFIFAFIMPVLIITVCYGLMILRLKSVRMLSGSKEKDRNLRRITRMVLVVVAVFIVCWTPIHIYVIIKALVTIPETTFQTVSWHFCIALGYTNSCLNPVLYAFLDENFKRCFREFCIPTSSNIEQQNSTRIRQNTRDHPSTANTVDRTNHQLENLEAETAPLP

SMILES	Selectivity [1] [%]	IC50 (Opioid receptor) [µM]	inhibition [2] [%]	Selectivity [3] [%]	inhibition [4] [%]	Selectivity [5] [%]	Selectivity [6] [%]
O=C1[C@H](CCc2ccccc2)N2C(=O)CCN(C(=O)OCCc3ccc(O)cc3)[C@H]2CN1CCc1ccccc1		0.009	91	< 10		< 10	101
O=C1[C@H](Cc2ccccc2)N2C(=O)CCN(C(=O)OCCc3ccc(O)cc3)[C@H]2CN1CCc1ccccc1		0.08			96		

Now from value to compound:

Selectivity [1] [%]	IC50 (Opioid receptor) [µM]	inhibition [2] [%]	Selectivity [3] [%]	inhibition [4] [%]	Selectivity [5] [%]	Selectivity [6] [%]	SMILES
91	0.027	79	< 10	99	< 10		CCCCCN1C[C@@H]2N(C(=O)OCCc3ccc(O)cc3)CCC(=O)N2[C@@H](CCc2ccccc2)C1=O
	> 1			< 10			CCCCCNC(=O)[C@H](CCc1ccccc1)NC(=O)CCNC(=O)OCCc1ccc(O)cc1
	0.149			84			CCCCCN1C[C@@H]2N(C(=O)OCCc3ccc(O)cc3)CCC(=O)N2[C@@H](Cc2ccccc2)C1=O
